# Patent US20070037840A1, “Tricyclic benzimidazoles” (Altana Pharma AG, priority 2003, published 2007)
# Assays:
# [1] = test system: pentagastrin-stimulated acid secretion of the perfused rat stomach; experiment: Secretion-inhibiting action on the perfused rat stomach (pentagastrin-stimulated acid secretion); assay type: in vivo; conditions: anesthetized CD rat, dose 2.0 μmol/kg i.d.
# Text: Testing of the Secretion-Inhibiting Action on the Perfused Rat Stomach
# In Table A which follows, the influence of the compounds of the formula 1 according to the invention on the pentagastrin-stimulated acid secretion of the perfused rat stomach after intraduodenal administration in vivo is shown.
# The abdomen of anesthetized rats (CD rat, female, 200-250 g; 1.5 g/kg i.m. urethane) was opened after tracheotomy by a median upper abdominal incision and a PVC catheter was fixed transorally in the esophagus and another via the pylorus such that the ends of the tubes just projected into the gastric lumen. The catheter leading from the pylorus led outward into the right abdominal wall through a side opening.
# After thorough rinsing (about 50-100 ml), warm (37° C.) physiological NaCl solution was continuously passed through the stomach (0.5 ml/min, pH 6.8-6.9; Braun-Unita I). The pH (pH meter 632, glass electrode EA 147; φ=5 mm, Metrohm) and, by titration with a freshly prepared 0.01N NaOH solution to pH 7 (Dosimat 665 Metrohm), the secreted HCl were determined in the effluent in each case collected at an interval of 15 minutes.
# The gastric secretion was stimulated by continuous infusion of […] (=1.65 ml/h) of i.v. pentagastrin (left femoral vein) about 30 min after the end of the operation (i.e. after determination of 2 preliminary fractions). The substances to be tested were administered intraduodenally in a 2.5 ml/kg liquid volume 60 min after the start of the continuous pentagastrin infusion. The body temperature of the animals was kept at a constant 37.8-38° C. by infrared irradiation and heat pads (automatic, stepless control by means of a rectal temperature sensor).
SMILES,Inhibition of acid secretion [1] [%],melting point [°C]
"COCCO[C@H]1c2ccc3c(nc(C)n3C)c2N[C@H](c2ccccc2)[C@H]1O [Example 2, (6S,7R,8R)-2,3-Dimethyl-7-hydroxy-6-(2-methoxyethoxy)-8-phenyl-6,7,8,9-tetrahydro-3H-imidazo[4,5-]quinoline]",<50,
"Cc1nc2c3c(ccc2n1C)[C@@H](O)[C@H](O)[C@@H](c1ccccc1)N3 [Example 5, (6R,7R,8R)-2,3-Dimethyl-6,7-dihydroxyl-8-phenyl-6,7,8,9-tetrahydro-3H-imidazo[4,5-h]quinoline]",>50,224.7
"COCCO[C@@H]1c2ccc3c(nc(C)n3C)c2N[C@H](c2ccccc2)[C@H]1O [Example 1, (6R,7R,8R)-2,3-Dimethyl-7-hydroxy-6-(2-methoxyethoxy)-8-phenyl-6,7,8,9-tetrahydro-3H-imidazo[4,5h]quinoline]",>50,
"Cc1nc2c3c(ccc2n1C)[C@@H](OCC(F)F)[C@H](O)[C@@H](c1ccccc1)N3 [Example 7, (6R,7R,8R)-2,3-Dimethyl-7-hydroxy-6-(2,2-difluoroethoxy)-8-phenyl-6,7,8,9-tetrahydro-3H-imidazo[4,5-h]quinoline]",>50,
"CCO[C@H]1c2ccc3c(nc(C)n3C)c2N[C@H](c2ccccc2)[C@H]1O [Example 4, (6S,7R,8R)-2,3-Dimethyl-6-ethoxy-7-hydroxy-8-phenyl-6,7,8,9-tetrahydro-3H-imidazo[4,5-h]-quinoline]",<50,169.9
"CCO[C@@H]1c2ccc3c(nc(C)n3C)c2N[C@H](c2ccccc2)[C@H]1O [Example 3, (6R,7R,8R)-2,3-Dimethyl-6-ethoxy-7-hydroxy-8-phenyl-6,7,8,9-tetrehydro-3H-imidazo[4,5h]-quinoline]",>50,
"Cc1nc2c3c(ccc2n1C)[C@H](O)[C@H](O)[C@@H](c1ccccc1)N3 [Example 6, (6S,7R,8R)-2,3-Dimethyl-6,7-dihydroxy-8-phenyl-6,7,8,9tetrahydro-3H-imidazo[4,5-h]quinoline]",<50,235.4
